{"source": "patent US12297187B2", "about": "“Compound having cyclic structure” (Daiichi Sankyo Company, Limited, priority 2017, dated 2025)", "test_system": "IL-10", "test": "Measurement of IL-10 increase rate (LPS-induced inflammation in mice, serum IL-10 by ELISA)", "assay_type": "in vivo", "settings": "Mus musculus, 2 h, oral 100 mg/kg in 0.5% methyl cellulose, LPS 0.4 mg/kg i.p. one hour later, serum taken one hour after LPS, % control ratio vs 0.5% methyl cellulose group, read-out: IL10 Increase Rate (%)", "protocol": "A test substance was suspended in a 0.5% (w/v) methyl cellulose and orally administered to mice at a dose of 100 mg/kg. One hour later, a lipopolysaccharide (LPS, Sigma-Aldrich, L2630 (trade name)) (0.4 mg/kg) was intraperitoneally administered to induce inflammation. One hour after administration of LPS, blood was taken from the vena cava under anesthesia with isoflurane, placed in a tube containing a serum separating agent, allowed to stand still at room temperature for 20-30 minutes and centrifuged at 4° C. at 12,000 rpm for 5 minutes to obtain the serum. Thereafter, the amount of the IL-10 in the serum was measured by using Mouse IL-10 Quantikine ELISA Kit (R&D systems, M1000B (trade name)) or Mouse IL-10 Immunoassay kit (PerkinElmer, AL502 (trade name)) in accordance with the protocol of the kit. The serum was diluted 10 times with the dilution solution contained in the kit and put in use. IL-10 increase rate (% control ratio) of the compound was calculated in accordance with the following expression: IL-10 increase rate (% control ratio) (IL10 amount in compound administration group)×100/(IL-10 amount in 0.5% (w/v) methyl cellulose administration group)", "data": [{"molecule": "Cn1c(COc2cc(C(F)(F)F)ccn2)nnc1[C@H]1CC[C@H](c2cnn([C@H]3CC[C@H](N4CCOCC4)CC3)c2)CC1", "note": "[Example 23, 4-[trans-4-(4-{trans-4-[4-Methyl-5-({[4-(trifluoromethyl)pyridin-2-yl]oxy}methyl)-4H-1,2,4-triazol-3-yl]cyclohexyl}-1H-pyrazol-1-yl)cyclohexyl]morpholine]", "values": [{"measurement": "response vs control in vivo at 100 mg/kg", "result": 232, "unit": "%"}]}, {"molecule": "Cn1c(COc2cc(C(F)(F)F)ccn2)nnc1[C@H]1CC[C@H](c2cnn([C@H]3CC[C@H](N4CC5(COC5)C4)CC3)c2)CC1", "note": "[Example 24, 6-[trans-4-(4-{trans-4-[4-Methyl-5-({[4-(trifluoromethyl)pyridin-2-yl]oxy}methyl)-4H-1,2,4-triazol-3-yl]cyclohexyl}-1H-pyrazol-1-yl)cyclohexyl]-2-oxa-6-azaspiro[3.3]heptane]", "values": [{"measurement": "response vs control in vivo at 100 mg/kg", "result": 257, "unit": "%"}]}, {"molecule": "Cn1c(COc2cc(C(F)(F)F)ccn2)nnc1[C@H]1CC[C@H](c2cnn([C@H]3CC[C@H](N4CC5(CCO5)C4)CC3)c2)CC1", "note": "[Example 25, 6-[trans-4-(4-{trans-4-[4-Methyl-5-({[4-(trifluoromethyl)pyridin-2-yl]oxy}methyl)-4H-1,2,4-triazol-3-yl]cyclohexyl}-1H-pyrazol-1-yl)cyclohexyl]-1-oxa-6-azaspiro[3.3]heptane]", "values": [{"measurement": "response vs control in vivo at 100 mg/kg", "result": 216, "unit": "%"}]}, {"molecule": "Cn1c(COc2cc(C(F)(F)F)ccn2)nnc1[C@H]1CC[C@H](c2cnn([C@H]3CC[C@H](N4CCC5(COC5)C4)CC3)c2)CC1", "note": "[Example 26, 6-[trans-4-(4-{trans-4-[4-Methyl-5-({[4-(trifluoromethyl)pyridin-2-yl]oxy}methyl)-4H-1,2,4-triazol-3-yl]cyclohexyl}-1H-pyrazol-1-yl)cyclohexyl]-2-oxa-6-azaspiro[3.4]octane]", "values": [{"measurement": "response vs control in vivo at 100 mg/kg", "result": 231, "unit": "%"}]}, {"molecule": "Cn1c(COc2cc(C(F)(F)F)ccn2)nnc1[C@H]1CC[C@H](c2cnn([C@H]3CC[C@H](N4CC5(CCOC5)C4)CC3)c2)CC1", "note": "[Example 27, 2-[trans-4-(4-{trans-4-[4-Methyl-5-({[4-(trifluoromethyl)pyridin-2-yl]oxy}methyl)-4H-1,2,4-triazol-3-yl]cyclohexyl}-1H-pyrazol-1-yl)cyclohexyl]-6-oxa-2-azaspiro[3.4]octane]", "values": [{"measurement": "response vs control in vivo at 100 mg/kg", "result": 255, "unit": "%"}]}, {"molecule": "Cn1c(COc2cc(C(F)(F)F)ccn2)nnc1[C@H]1CC[C@H](c2cnn([C@H]3CC[C@H](N4CC(CO)(CO)C4)CC3)c2)CC1", "note": "[Example 29, {1-[trans-4-(4-{trans-4-[4-Methyl-5-({[4-(trifluoromethyl)pyridin-2-yl]oxy}methyl)-4H-1,2,4-triazol-3-yl]cyclohexyl}-1H-pyrazol-1-yl)cyclohexyl]azetidine-3,3-diyl}dimethanol]", "values": [{"measurement": "response vs control in vivo at 100 mg/kg", "result": 111, "unit": "%"}]}, {"molecule": "COC(=O)c1cccc(OCc2nnc([C@H]3CC[C@H](c4cnn([C@H]5CC[C@H](N6CCC6)CC5)c4)CC3)n2C)c1", "note": "[Example 30, Methyl 3-{[5-(trans-4-{1-[trans-4-(azetidin-1-yl)cyclohexyl]-1H-pyrazol-4-yl}cyclohexyl)-4-methyl-4H-1,2,4-triazol-3-yl]methoxy}benzoate]", "values": [{"measurement": "response vs control in vivo at 100 mg/kg", "result": 141, "unit": "%"}]}, {"molecule": "COC(=O)c1cccc(OCc2nnc([C@H]3CC[C@H](c4cnn([C@H]5CC[C@H](N6CC7(COC7)C6)CC5)c4)CC3)n2C)c1", "note": "[Example 31, Methyl 3-{[4-methyl-5-(trans-4-{1-[trans-4-(2-oxa-6-azaspiro[3.3]hept-6-yl)cyclohexyl]-1H-pyrazol-4-yl}cyclohexyl)-4H-1,2,4-triazol-3-yl]methoxy}benzoate]", "values": [{"measurement": "response vs control in vivo at 100 mg/kg", "result": 222, "unit": "%"}]}, {"molecule": "Cn1c(COC2CCCC(C(F)(F)F)C2)nnc1[C@H]1CC[C@H](c2cnn([C@H]3CC[C@H](N4CC5(CCOC5)C4)CC3)c2)CC1", "note": "(stereo partly drawn) [Example 32, 2-[trans-4-(4-{trans-4-[4-Methyl-5-({[3-(trifluoromethyl)cyclohexyl]oxy}methyl)-4H-1,2,4-triazol-3-yl]cyclohexyl}-1H-pyrazol-1-yl)cyclohexyl]-6-oxa-2-azaspiro[3.4]octane]", "values": [{"measurement": "response vs control in vivo at 100 mg/kg", "result": 202, "unit": "%"}]}, {"molecule": "Cn1c(CCn2cccc(C(F)(F)F)c2=O)nnc1[C@H]1CC[C@H](c2cnn([C@H]3CC[C@H](N4CC5(CCOC5)C4)CC3)c2)CC1", "note": "[Example 33, 1-{2-[4-Methyl-5-(trans-4-{1-[trans-4-(6-oxa-2-azaspiro[3.4]oct-2-yl)cyclohexyl]-1H-pyrazol-4-yl}cyclohexyl)-4H-1,2,4-triazol-3-yl]ethyl}-3-(trifluoromethyl)pyridin-2(1H)-one]", "values": [{"measurement": "response vs control in vivo at 100 mg/kg", "result": 144, "unit": "%"}]}, {"molecule": "CN1CCC(c2nnc(-c3ccc(-c4nnc(COc5cccc(C(F)(F)F)c5)n4C)cc3)o2)CC1", "note": "[Example 34, 1-Methyl-4-{5-[4-(4-methyl-5-{[3-(trifluoromethyl)phenoxy]methyl}-4H-1,2,4-triazol-3-yl)phenyl]-1,3,4-oxadiazol-2-yl}piperidine]", "values": [{"measurement": "response vs control in vivo at 100 mg/kg", "result": 202, "unit": "%"}]}, {"molecule": "Cn1c(COc2cccc(Cl)c2)nnc1[C@H]1CC[C@H](c2cc([C@@H]3CC[C@@H](N4CCC4)CO3)on2)CC1", "note": "[Example 35, 3-(trans-4-{5-[(2S,5R)-5-(Azetidin-1-yl)tetrahydro-2H-pyran-2-yl]-1,2-oxazol-3-yl}cyclohexyl)-5-[(3-chlorophenoxy)methyl]-4-methyl-4H-1,2,4-triazole]", "values": [{"measurement": "response vs control in vivo at 100 mg/kg", "result": 184, "unit": "%"}]}, {"molecule": "CC(C)c1cccc(O[C@H](C)c2nnc([C@H]3CC[C@H](C4=NOC5(CCN(C)CC5)C4)CC3)n2C)c1", "note": "[Example 36, 8-Methyl-3-[trans-4-(4-methyl-5-{(1R)-1-[3-(propan-2-yl)phenoxy]ethyl}-4H-1,2,4-triazol-3-yl)cyclohexyl]-1-oxa-2,8-diazaspiro[4.5]dec-2-ene]", "values": [{"measurement": "response vs control in vivo at 100 mg/kg", "result": 230, "unit": "%"}]}]}
